Test results taken from patent US20020128317A1, “Treatment of pathological conditions characterized by an increased IL-1 level” (Laboratories NEGMA, priority 2001, published 2002).

Assays:
[1] = Stability in aqueous solution; assay type: physicochemical
Protocol: (§1) Preferably the diacerein or rhein is administered orally in the conventional solid unit dosage form.

IL-1 [2] = test: Effect of administration on IL-1 levels in subjects; assay type: in vivo; conditions: subjects with abnormally elevated IL-1 and TNF-α levels
phospholipase pathway = test: Inhibitory effect on phospholipase pathway; assay type: biochemical
Excerpt: (§2) This unique mechanism of action of diacerein was thought to explain, at least in part, its efficacy in the symptomatic treatment of osteoarthritis.

[3] = test system: prostaglandin biosynthesis; test: Inhibition of prostaglandin biosynthesis; assay type: biochemical
Excerpt: as §2

cartilage degradation = test: Effect on cartilage degradation in osteoarthritis treatment; assay type: in vivo; conditions: prescribed treatment protocol
Solubility = assay type: physicochemical
Protocol: as §1

lipooxygenase pathway = test: Inhibitory effect on lipooxygenase pathway; assay type: biochemical
Excerpt: as §2

[4] = Gastric safety during osteoarthritis treatment; assay type: in vivo
Excerpt: as §2

IL-1 [5] = test: IL-1 inhibition, several studies in vitro and with animal models of osteoarthritis
Excerpt: as §2

TNF-α = test: Effect of administration on TNF-α levels in subjects; assay type: in vivo; conditions: subjects with abnormally elevated IL-1 and TNF-α levels
cyclooxygenase pathway = test: Inhibitory effect on cyclooxygenase pathway; assay type: biochemical
Excerpt: as §2

diacerein
stability in water [1]: may not be sufficiently stable
effect on IL-1 levels (IL-1 [2]): inhibitory effect
inhibitory effect on the phospholipase pathway (phospholipase pathway): no inhibitory effect was detected
inhibition of prostaglandin biosynthesis [3]: neither diacerein nor rhein inhibit
effect on cartilage degradation (cartilage degradation): significant effect on cartilage degradation
solubility in alcohol (Solubility; alcohol): virtually insoluble
solubility in water (Solubility; water): virtually insoluble
inhibitory effect on the lipooxygenase pathway (lipooxygenase pathway): no inhibitory effect was detected
gastric safety profile [4]: excellent gastric safety profile
IL-1 inhibition (IL-1 [5]): is an IL-1 inhibitor
effect on TNF-α levels (TNF-α): inhibitory effect
inhibitory effect on the cyclooxygenase pathway (cyclooxygenase pathway): no inhibitory effect was detected
